viability, T/C and IC50 data for eleven compounds are collected here from PubChem BioAssay AID2060360 (Molecular Pharmacology Branch, DTP, NCI, 2025).

The assay relates to 282377-053-R-J1-PDC tumor spheroids, viability. Briefly: Anticancer human tumor 282377-053-R-J1-PDC patient-derived colon adenocarcinoma cell line growth inhibition [TAK]. As to conditions: spheroids with HUVEC and MSC; for viability, T/C: stronger effect = lower value. An excerpt:
Combinatorial screen of targeted agents with TAK-243 and ipatasertib in multi-cell type tumor spheroids
A high-throughput screen of multi-cell type tumor spheroids was designed to identify active combinations of targeted small molecules and TAK-243 or ipatasertib. Complex spheroids include a stromal component modeled by human endothelial cells (HUVEC) and fibroblasts modeled by human mesenchymal stem cells (MSCs). The concentration ranges selected for each drug and investigational agent were based upon clinically achievable concentrations if the clinical Cmax of the agent was known.
Compounds. The drugs and investigational agents: TAK-243 (785004), ipatasertib (767898), everolimus (733504), selumetinib (741078), bortezomib (756655), trametinib (758246), ixazomib (758254), vemurafenib (761431), dabrafenib (764134), sapanisertib (764658), alpelisib (765974), and copanlisib (816437), were obtained from the National Cancer Institute (NCI) Developmental Therapeutics Program Chemical Repository. The FDA-approved anticancer drug set is available from the NCI Developmental Therapeutics Program. […] The stock solutions were prepared in dimethyl sulfoxide (DMSO, Sigma-Aldrich, St. Louis, MO, cat. D2650) at 800-fold the tested concentration and stored at -70 degrees C prior to their use. All drugs and investigational agents were tested over a range starting from a high concentration at or near the clinical Cmax and decreasing in half-log increments. If the clinical Cmax for an agent had not been determined, the highest concentration tested was 10 microM.
NCI60 Cell Culture. NCI60 cell lines were obtained from the NCI Developmental Therapeutics Program Tumor Repository. For each lot of cells, the Repository performed Applied Biosystems AmpFLSTR Identifiler testing with PCR amplification to confirm consistency with the published Identifier STR profile for each cell line. Cells were kept in continuous culture for no more than 20 passages. The optimal seeding densities for each of the cell lines at each time point assessed were determined prior to performing the concentration response studies. Briefly, the NCI60 human tumor lines were grown as monolayers in RPMI 1640 medium supplemented with 10% FBS and 2 mmol/L L-glutamine.
An additional 2 lines were from the NCI60 cell line panel including melanomas, MALME-3M and SK-MEL-2. Pooled donor human umbilical vein endothelial cells (HUVEC, Lonza, cat. CC-2519) and human mesenchymal stem cells (hMSC, Lonza, cat. PT-2501) were purchased from Lonza (Walkersville, MD).
PDMR cell lines were grown in complete medium (DC medium): Dulbecco's modified Eagle's medium (DMEM)/F12 supplemented with 5% fetal bovine serum (FBS), 2 mM L-glutamine, 100 U/mL penicillin and 100 µg/ml streptomycin, 0.4 µg/ml hydrocortisone, 10 ng/ml epidermal growth factor (EGF) recombinant human protein, 24 µg/mL adenine, and 0.1 mg/mL primocin. During culture from frozen stock vials, PDMR cells were cultured in the same medium containing 10 µM Y-27632 (see Table 3). The PDCs were cultured in complete DMEM/F12 media without 10 microM Y-27632 dihydrochloride for at least two passages prior to the screen. The pooled donor HUVEC and hMSC were cultured in endothelial cell growth medium 2 (PromoCell, Heidelberg, Germany, cat. C-22011) and mesenchymal stem cell growth medium 2 (PromoCell, cat. C-28009), respectively. For all experiments, HUVEC and hMSC were used at passages </=5.
For the pre-screen, cell seeding densities were determined from a titration spanning the range from 5,000 to 313 cells per well. The mct-spheroids including 60% malignant cells, 25% HUVEC and 15% MSC dispensed as a mixture into U-bottom Ultra-Low Attachment 384-well plates (Corning, NY)
High-throughput Drug Combination Screening.
Prior to their inoculation into 384-well plates, malignant cells, HUVEC, and hMSC were removed from T flasks using TrypLE express (Thermo Fisher Scientific, cat. 12605036) and harvested by centrifugation for 5 min at 233 x g. […]

Structures are written as SMILES. “And” between values parts separate entries of the source, which are not always exact repeats. Equal entries are not always repeated. Some results are limits rather than exact numbers.
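Further: spheroids exposed to drugs for seven days before readout.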

Turning to `CC(=O)Nc1cccc(-n2c(=O)n(C3CC3)c(=O)c3c(Nc4ccc(I)cc4F)n(C)c(=O)c(C)c32)c1`, the viability, T/C (as a rule, the result in the treated group divided by that in the control group, in per cent) is, setting by setting: (compound 94.9 pM) 98.3% and 96.1%; (compound 0.0003 µM) 86.1% and 84.3%; (compound 0.000949 µM) 70.9% and 75.1%; (compound 0.003 µM) 60.2% and 62.8%; (compound 0.00949 µM) 29.5% and 37.9%; (compound 0.03 µM) 13.8% and 13.7%. Besides, the IC50 – broadly, the midpoint of a concentration-inhibition curve – (curve of compound) was 3.89 nM and 5.29 nM.
On to `CC(C)(C)c1nc(-c2cccc(NS(=O)(=O)c3c(F)cccc3F)c2F)c(-c2ccnc(N)n2)s1`, for which the viability, T/C was 85.2% and 87.2% (compound 0.0316 µM); 84.1% and 87.2% (compound 0.1 µM); 78.2% and 83.8% (compound 0.316 µM); 78.9% and 81.5% (compound 1 µM); 79% and 76% (compound 3.16 µM); 69.4% and 69.9% (compound 10 µM). For the same compound, the IC50 (curve of compound) was over 10000 nM.
Take `CC(C)CC(NC(=O)C(Cc1ccccc1)NC(=O)c1cnccn1)B(O)O` (stereo unspecified): the viability, T/C runs as follows: (compound 31.6 pM) 106% and 102%; (compound 0.0001 µM) 98.4% and 102%; (compound 0.000316 µM) 99.5% and 94.6%; (compound 0.001 µM) 109% and 101%; (compound 0.00316 µM) 100% and 97.2%; (compound 0.01 µM) 93.2% and 81.1%. The IC50 (curve of compound) is over 10 nM.
Turning to `CC(C)CC(NC(=O)CNC(=O)c1cc(Cl)ccc1Cl)B1OC(=O)CC(CC(=O)O)(C(=O)O)O1` (stereo unspecified), the viability, T/C is, setting by setting: (compound 0.000316 µM) 97.6% and 92.8%; (compound 0.001 µM) 95.9% and 104%; (compound 0.00316 µM) 101% and 95.3%; (compound 0.01 µM) 97.9% and 101%; (compound 0.0316 µM) 93.3% and 95%; (compound 0.1 µM) 5.66% and 8.2%. Moreover, the IC50 (curve of compound) is 55.8 nM and 57.5 nM.
Consider `CC(C)NCC(C(=O)N1CCN(c2ncnc3c2C(C)CC3O)CC1)c1ccc(Cl)cc1` (stereo unspecified), for which the viability, T/C (compound 0.3 µM) was 100% [middle of 10 runs]; the viability, T/C (compound 0.949 µM) was 92% [middle of 10 runs]; the viability, T/C (compound 3 µM) was 84.9% [middle of 10 runs]; the viability, T/C (compound 9.49 µM) is 81.9% [middle of 10 runs]; the viability, T/C (compound 30 µM) was 69.3% [middle of 10 runs]. In addition, the IC50 (compound alone, run of 03/19/2020) is over 30000 nM.
Consider `CC(C)n1nc(-c2ccc3oc(N)nc3c2)c2c(N)ncnc21`, for which the viability, T/C reads like this: (compound 0.000316 µM) 99.5% and 93.2%; (compound 0.001 µM) 99% and 92.6%; (compound 0.00316 µM) 99.7% and 91.3%; (compound 0.01 µM) 89.3%; (compound 0.0316 µM) 83% and 83.3%; (compound 0.1 µM) 49.6% and 59.1%. Besides, the IC50 (curve of compound) is over 100 nM.
Consider `CCCS(=O)(=O)Nc1ccc(F)c(C(=O)c2c[nH]c3ncc(-c4ccc(Cl)cc4)cc23)c1F`, for which the viability, T/C is 86.4% and 86.2% (compound 0.316 µM); 82.3% and 82.7% (compound 1 µM); 82.7% and 85.6% (compound 3.16 µM); 21.3% and 27% (compound 10 µM); 89.4% and 84.6% (compound 31.6 µM); 75.5% and 94% (compound 100 µM). Moreover, the IC50 (curve of compound) was over 100000 nM.
For `COC1CC2CCC(C)C(O)(O2)C(=O)C(=O)N2CCCCC2C(=O)OC(C(C)CC2CCC(OCCO)C(OC)C2)CC(=O)C(C)C=C(C)C(O)C(OC)C(=O)C(C)CC(C)C=CC=CC=C1C` (stereo unspecified), the viability, T/C (compound 0.000316 µM) was 101% and 99.3%; the viability, T/C (compound 0.001 µM) was 101% and 97.3%; the viability, T/C (compound 0.00316 µM) is 97.6% and 98.6%; the viability, T/C (compound 0.01 µM) was 102% and 103%; the viability, T/C (compound 0.0316 µM) was 94.2% and 95.4%; the viability, T/C (compound 0.1 µM) was 101% and 97.8%. In addition, the half-inhibitory concentration (IC50) (curve of compound) is over 100 nM.
Regarding `COc1c(OCCCN2CCOCC2)ccc2c3n(c(=NC(=O)c4cnc(N)nc4)nc12)CCN3`, the viability, T/C runs as follows: (compound 0.00316 µM) 101%; (compound 0.01 µM) 100% and 94.6%; (compound 0.0316 µM) 98.1% and 97.2%; (compound 0.1 µM) 98% and 87.7%; (compound 0.316 µM) 97.2% and 80.9%; (compound 1 µM) 56.2% and 19.3%. Further, under “curve of compound”, the IC50 is > 1000 nM and 555 nM.
In the case of `Cc1nc(NC(=O)N2CCCC2C(N)=O)sc1-c1ccnc(C(C)(C)C(F)(F)F)c1` (stereo unspecified), the viability, T/C is, setting by setting: (compound 0.0316 µM) 97.1% and 95.8%; (compound 0.1 µM) 96.6% and 101%; (compound 0.316 µM) 95.6% and 96.5%; (compound 1 µM) 93.9% and 93.5%; (compound 3.16 µM) 89.7% and 88.6%; (compound 10 µM) 85.2% and 79.1%. In addition, where the note is “curve of compound”, the IC50 is over 10000 nM.
For `Cn1cnc2c(F)c(Nc3ccc(Br)cc3Cl)c(C(=O)NOCCO)cc21`, the viability, T/C was 89.8% and 85.2% (compound 0.00949 µM); 88.6% and 82.3% (compound 0.03 µM); 79% and 71.6% (compound 0.0949 µM); 76.2% and 72.7% (compound 0.3 µM); 46.9% and 36.5% (compound 0.949 µM); 21.5% and 17.7% (compound 3 µM). Besides, for the setting “curve of compound”, the IC50 is 867 nM and 611 nM.
